Assay [1] relates to pentagastrin-stimulated gastric acid secretion. The assay can be described thus: Measurement of inhibition of pentagastrin-stimulated gastric acid secretion in rat. It counts as in vivo. As to conditions: anaesthetised rat, test drug intravenous, pentagastrin 15 μg/Kg/hr i.v.; read-out: ED50, reduction of pentagastrin-stimulated gastric acid secretion to 50% of the maximum level. The text has this:
Measurement of inhibition of pentagastrin-stimulated gastric acid secretion in rat
A cannula was inserted into the trachea of a rat anaesthetised with urethane (intraperitoneally administered, 1.25 g/Kg), its abdominal wall was incised to expose the gastric and duodenal portions, and a polyethylene cannula was set in the anterior stomach after ligation of the cardia. The duodenum was then subjected to slight section, a polyethylene cannula was inserted from the incised portion toward the stomach, and the pylorus was ligated to fix the cannula.
Physiological saline (with pH adjusted to 7.0) was perfused from the anterior stomach toward the pylorus at a rate of 3 ml/min, and the gastric-acid secretion was measured by continuous titration of the perfusate by the use of a pH-stat (AUT-201; product of Toa Electronics, Ltd.). The continuous titration was carried out by using 25 mM NaOH solution until the pH reached 7.0, and the result was expressed as the amount of gastric acid secreted for every 10 minutes (μEq /10 min.). Pentagastrin was intravenously administered at a rate of 15 μg/Kg/hr.
The secretion of gastric acid increased upon administration of pentagastrin, reaching the maximum level after 60 minutes and stably maintaining this level after that. A test drug was then intravenously administered, and the secretion of gastric acid was measured; ED50 values were determined, being the amount of the drug required to reduce the amount of secreted gastic acid down to 50% of the maximum level.

Assay [2] concerns the target T1, CCK-A receptors (Rattus norvegicus, UniProt P30551).
T1 construct: The pancreas of an SD rat was homogenized; from tissue; host or cells: SD rat pancreas membranes
T1 sequence (P30551 1-444): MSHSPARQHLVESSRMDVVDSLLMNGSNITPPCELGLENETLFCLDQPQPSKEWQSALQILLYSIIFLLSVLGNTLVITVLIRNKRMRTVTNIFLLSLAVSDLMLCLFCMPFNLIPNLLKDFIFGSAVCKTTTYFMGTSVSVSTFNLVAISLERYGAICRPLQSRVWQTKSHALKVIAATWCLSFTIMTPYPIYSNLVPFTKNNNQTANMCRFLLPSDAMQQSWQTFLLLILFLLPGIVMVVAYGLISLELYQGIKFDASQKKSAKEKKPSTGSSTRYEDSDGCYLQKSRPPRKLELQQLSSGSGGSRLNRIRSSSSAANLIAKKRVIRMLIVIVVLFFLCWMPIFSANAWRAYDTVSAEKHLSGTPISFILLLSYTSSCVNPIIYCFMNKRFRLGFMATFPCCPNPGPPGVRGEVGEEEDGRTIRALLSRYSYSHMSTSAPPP
The assay can be described thus: Measurement of binding affinity for CCK-A receptors ([3H]L-364,718, rat pancreas membranes). As to conditions: [3H]L-364,718, 37° C., 30 minutes, read-out: Receptor binding affinity IC50, CCK-A. The arrangement: species or system SD rat. As to the method: Measurement of binding affinity for CCK-A receptors
The pancreas of an SD rat was homogenized in a 20-fold volume of 50 mM Tris-HCl buffer (pH 7.7) by the use of a Polytrone-type homogenizer, the homogenate was twice centrifuged for 10 minutes at 50000 g by the use of an ultra-centrifuge, the precipitate thus obtained was suspended in a 40-fold volume of 50 mM Tris-HCl buffer (containing 0.2% BSA, 5 mM MgCl2, 0.1 mg/ml bacitracin and 5 mM DTT; pH 7.7), and the suspension was stored at -80° C. until the membrane preparations were required.
The membrane preparations were then warmed to room temperature, diluted 1:10 with the buffer and incubated at 37° C. for 30 minutes in the presence of [^3 H]L-364,718 and the test compound then separated by suction filtration. Non-specific binding was determined in the presence of 1 μM L-364,718. The amount of labelled ligand bound to the receptor was measured by the use of a liquid scintillation counter; IC50 values were determined, being that concentration of test compound required to inhibit specific binding by 50%
(§1) A high affinity for the CCK-A receptor in a gastrin/CCK-B antagonist is thought to be undesirable as it may lead to side-effects such as cholestasis and gall stone formation during therapy. Therefore it is preferable for the therapeutic agent to be selective for the CCK-B receptor. This selectivity is expressed by the ratio IC50 (CCK-A)/IC50 (CCK-B); the higher the value of this ratio the better is the selectivity.

The target of assay [3] is T2, CCK-B receptors (Rattus norvegicus, UniProt P30553).
T2 construct: the whole brain was immediately excised from each of the rats and homogenized; from tissue; host or cells: SD rat whole brain membranes
T2 sequence (P30553 whole entry): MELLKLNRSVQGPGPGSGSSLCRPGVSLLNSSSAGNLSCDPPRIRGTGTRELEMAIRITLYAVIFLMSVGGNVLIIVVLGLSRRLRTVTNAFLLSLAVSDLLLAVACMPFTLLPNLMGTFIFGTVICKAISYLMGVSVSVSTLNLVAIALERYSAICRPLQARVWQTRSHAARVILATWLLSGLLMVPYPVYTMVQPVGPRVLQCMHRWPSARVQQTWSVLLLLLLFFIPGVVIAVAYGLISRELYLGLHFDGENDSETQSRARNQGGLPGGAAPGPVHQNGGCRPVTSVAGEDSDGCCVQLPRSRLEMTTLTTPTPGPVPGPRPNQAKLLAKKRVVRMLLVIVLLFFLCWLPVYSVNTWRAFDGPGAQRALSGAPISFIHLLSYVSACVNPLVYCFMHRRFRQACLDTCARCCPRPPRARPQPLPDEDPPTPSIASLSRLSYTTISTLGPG
The assay can be described thus: Measurement of binding affinity for CCK-B receptors ([125I]BH-CCK-8, rat brain membranes). The arrangement: species or system SD rats. As to conditions: for A/B Ratio: ratio IC50 (CCK-A)/IC50 (CCK-B); for IC50: rat brain membranes, [125I]BH-CCK-8, 25° C., 120 minutes, pH 6.5, read-out: Receptor binding affinity IC50, CCK-B. The method, then: Measurement of binding affinity for CCK-B receptors
About 100 SD rats were decapitated without anaesthesia, the whole brain was immediately excised from each of the rats and homogenized in 10-fold volume of 0.32M aqueous solution of sucrose by the use of a Teflon-coated homogenizer, the homogenate thus obtained was centrifuged for ten minutes at 900 g by the use of a cooled centrifuge, and the supernatant was further centrifuged for 15 minutes at 11500 g. The precipitate thus obtained was dispersed in 50 mM Tris-HCl buffer (pH 7.4) containing 0.08% Triton X-100, this suspension was allowed to stand for 30 minutes and again centrifuged for 15 minutes at 11500 g, the precipitate thus obtained was washed twice with 5 mM Tris-HCl buffer and twice with 50 mM Tris-HCl buffer in that order with centrifugal separation, the washed precipitate was suspended in 50 mM Tris-HCl buffer, and the suspension thus obtained was stored at -80° C. until the membrane preparation was required.
The membrane preparations were warmed to room temperature, diluted with 10 mM HEPES buffer (containing 130 mM NaCl, 5 mM MgCl2, 1 mM EGTA and 0.25 mg/ml bacitracin; pH 6.5) and incubated at 25° C. for 120 minutes in the presence of [^125 I]BH-CCK-8 and the test compound, then separated by suction filtration. Non-specific binding was determined in the presence of 1 μM CCK-8. The amount of labelled ligand bound to the receptor was measured by the use of a γ-counter; IC50 values were determined, being that concentration of test compound required to inhibit specific binding by 50%.
as §1

Broadly, the ED50 is the dose that gives a 50% effect, or the effect in half of the subjects. `Cc1cccc(NC(=O)N[C@@H]2N=C(c3ccccc3)c3ccccc3N(C)C2=O)c1` [reference compound]: the median effective dose (ED50) in assay [1] was 4.2 µmol/kg.

With `Cc1cccc(NC(=O)NC2N=C(c3ccccc3)c3ccccc3N(CC(=O)C3CCCCCC3)C2=O)c1` (racemic) [Example 5, N-((3RS)-1-Cycloheptylcarbonylmethyl-2,3-dihydro-2-oxo-5-phenyl-1H-1,4-benzodiazepin-3-yl)-N'-(3-methylphenyl)urea], the ED50 in assay [1] amounted to 0.018 µmol/kg.

What is called IC50 is the point on the concentration scale where inhibition reaches its midpoint. Take `Cc1cccc(NC(=O)NC2N=C(c3ccccc3)c3ccccc3N(CC(=O)C3CCCC3)C2=O)c1` (racemic) [Example 4, N-((3RS)-1-Cyclopentylcarbonylmethyl-2,3-dihydro-2-oxo-5-phenyl-1H-1,4-benzodiazepin-3-yl)-N'-(3-methylphenyl)urea]: the IC50 in assay [2] amounted to 440 nM. Further, the ED50 in assay [1] was determined as 0.016 µmol/kg. Besides, in assay [3], the “A/B Ratio” value is recorded as 1,900.

`Cc1cccc(NC(=O)NC2N=C(c3ccccc3)c3ccccc3N(CC(=O)C3CCCCC3)C2=O)c1` (racemic) [Example 7, N-((3RS)-1-Cyclohexylcarbonylmethyl-2,3-dihydro-2-oxo-5-phenyl-1H-1,4-benzodiazepin-3-yl)-N'-(3-methylphenyl)urea]: in assay [1], the 50% effective dose (ED50) came to 0.047 µmol/kg.

As to `O=C(Nc1cccc(C(=O)O)c1)N[C@@H]1N=C(c2ccccc2)c2ccccc2N(CC(=O)C2CCCC2)C1=O` [Example 23, N-((3R)-1-Cyclopentylcarbonylmethyl-2,3-dihydro-2-oxo-5-phenyl-1H-1,4-benzodiazepin-3-yl)-N'-(3-carboxyphenyl)urea], the 50% inhibitory concentration (IC50) in assay [2] was determined as 870 nM. Further, in assay [3], the IC50 is 0.08 nM and the “A/B Ratio” value is listed as 11,000.

With `O=C(Nc1cccc(C(=O)O)c1)N[C@@H]1N=C(c2ccccc2)c2ccccc2N(CC(O)C2CCCC2)C1=O` (mixture of isomers) [Example 24, N-((3R)-1-((2RS)-2-Cyclopentyl-2-hydroxyethyl)-2,3-dihydro-2-oxo-5-phenyl-1H-1,4-benzodiazepin-3-yl)-N'-(3-carboxyphenyl)urea], in assay [2], the IC50 is over 10000 nM. Also, in assay [3], the half-inhibitory concentration (IC50) turned out to be 0.97 nM and the “A/B Ratio” value is > 10,000.

As for `Cc1cccc(NC(=O)NC2N=C(c3ccccc3)c3ccccc3N(CC(=O)C3(C)CCCCC3)C2=O)c1` (racemic) [Example 34, N-((3RS)-1-((1-Methylcyclohexyl)carbonylmethyl)-2,3-dihydro-2-oxo-5-phenyl-1H-1,4-benzodiazepin-3-yl)-N'-(3-methylphenyl)urea], the concentration for half-maximal inhibition (IC50) in assay [2] was over 10000 nM. The “A/B Ratio” value in assay [3] was > 26,000.

Consider `Cc1cccc(NC(=O)NC2N=C(c3ccccc3)c3ccccc3N(CC(=O)CC3CCCCC3)C2=O)c1` (racemic) [Example 32, N-((3RS)-1-Cyclohexylmethylcarbonylmethyl-2,3-dihydro-2-oxo-5-phenyl-1H-1,4-benzodiazepin-3-yl)-N'-(3-methylphenyl)urea], for which, in assay [2], the 50% inhibitory concentration (IC50) stood at 480 nM. For the same compound, in assay [3], the “A/B Ratio” value is on record as 1,700.

Turning to `Cc1cccc(NC(=O)N[C@@H]2N=C(c3ccccc3)c3ccccc3N(C[C@H](O)C3CCCC3)C2=O)c1` (racemic) [Example 12, N-((3RS)-1-((2RS)-2-Cyclopentyl-2-hydroxyethyl)-2,3-dihydro-2-oxo-5-phenyl-1H-1,4-benzodiazepin-3-yl)-N'-(3-methylphenyl)urea], in assay [2], the IC50 was over 10000 nM. Moreover, in assay [3], the IC50 is 1.4 nM and the “A/B Ratio” value was > 7,100.

As for `Cc1cccc(NC(=O)N[C@@H]2N=C(c3ccccc3)c3ccccc3N(C[C@@H](O)C3CCCC3)C2=O)c1` (racemic) [Example 13, N-((3RS)-1-((2SR)-2-Cyclopentyl-2-hydroxyethyl)-2,3-dihydro-2-oxo-5-phenyl-1H-1,4-benzodiazepin-3-yl)-N'-(3-methylphenyl)urea], the half-maximal inhibitory concentration (IC50) in assay [2] was over 10000 nM; in assay [3], 0.11 nM. Also, in assay [3], the “A/B Ratio” value is given as > 91,000.

As for `O=C(Nc1cccc(C(=O)O)c1)N[C@@H]1N=C(c2ccccc2)c2ccccc2N(C[C@H](O)C2CCCC2)C1=O` [Example 25, N-((3R)-1-((2R)-2-Cyclopentyl-2-hydroxyethyl)-2,3-dihydro-2-oxo-5-phenyl-1H-1,4-benzodiazepin-3-yl)-N'-(3-carboxyphenyl)urea], the 50% inhibitory concentration (IC50) was over 10000 nM in assay [2] and 0.65 nM in assay [3]. In assay [3], the “A/B Ratio” value is reported as > 15,000.

Take `NC(=O)c1cccc(NC(=O)NC2N=C(c3ccccc3)c3ccccc3N(CC(=O)C3CCCC3)C2=O)c1` (racemic) [Example 35, N-((3RS)-1-Cyclopentylcarbonylmethyl-2,3-dihydro-2-oxo-5-phenyl-1H-1,4-benzodiazepin-3-yl)-N'-(3-carboxamidophenyl)urea]: in assay [2], the IC50 is 1900 nM. Also, in assay [3], the IC50 turned out to be 1.1 nM and the “A/B Ratio” value was 1,700.

(Values after patent US5688943A, “Benzodiazepine derivatives useful as CCK-receptor antagonists” (Yamanouchi Pharmaceutical Co., Ltd., priority 1992, dated 1997).)
